Reference: US9956293B2, “Targeted therapeutics” (Madrigal Pharmaceuticals, Inc., priority 2014, dated 2018)
pIC50: −log10 of the molar value.

Tests used:
HER2 [1] = assay: HER2 degradation in BT-474 cells (Example 3, Western blot / in-cell imaging); format: cell-based, human; settings: BT-474 cells; for pIC50: Homo sapiens, read-out: HER2 (IC50)
Description: BT-474 cells are plated in the interior 60 wells of a 96 well black clear bottom plate (20,000 cells/well) in DMEM medium, with DMEM media in the surrounding 36 wells, and incubated at 37° C. with 5% CO2 overnight. On the second day, concentration response curve source plates are produced (10 point, 3-fold dilution of compounds in DMSO) followed by a 1:30 dilution in an intermediate dilution plate containing DMEM. Compound is transferred from the intermediate plate to the cell plate at a dilution of 1:10.
Cells are then fixed in 4% phosphate-buffered paraformaldehyde for 30 minutes at room temperature and then permeabilized by washing five times with 0.1% Triton X-100 in PBS for 5 minutes at room temperature on a shaker. […] Cells are washed 5 times with 0.1% Tween-20 in PBS for 5 minutes at room temperature on a shaker and imaged on a LI-COR Odyssey imaging station. The raw data is normalized to DRAQ5 and the HER2 EC50 is calculated using XLfit™.

HER2 [2] = assay: HER2 degradation assay with BT-474 cell line (Example 12, FACS); format: cell-based; settings: Homo sapiens
[3] = Tissue distribution of SDC-TRAPs in tumor-bearing mice: plasma, tumor, heart (Examples 14-15); settings: mouse, in vivo
Description: (§1) Tissue Distribution Extraction Procedure for SDC-TRAP Tumor Samples
(§2) A 150 ng/mL solution of SDC-TRAP-0002 in methanol was prepared using an internal spiking solution (500 μg/mL SDC-TRAP-0002 in DMSO). Using the 10 mM stock solutions of the SDC-TRAP molecule and its Hsp90i binding moiety and effector moiety in DMSO, spiking solutions were prepared at 0.025, 0.05, 0.1, 0.5, 1, 5, 10, 50, 100, 250, and 500 μM in DMSO. 5 μL of each spiking solution was added to a 96-deep well plate.
(§3) Quality control standards were prepared from 5 μL of 0.1, 1, and 10 μM calibration standard spiking solution added in triplicate into 96-deep well plate and adding 50 μL of matrix (plasma or homogenized tumor).
(§4) To prepare test samples, test plasma was diluted as needed using blank plasma. Tumor samples were pulverized in liquid nitrogen, weighed, and homogenized in PBS at 5× volume to sample weight. 50 μL of unknown plasma or homogenized tumor sample was mixed with 5 μL of DMSO. The samples were extracted by precipitating calibration standards, QC standards, and unknown samples with 200 μL of internal standard solution. The samples were mixed by vortex at room temperature for approximately 1.5 minutes, then centrifuge at 2-8° C. 150 μL of supernatant was collected and 25 μL of water added. Samples were mixed and analyzed by LC-MS/MS.
(§5) Samples of plasma, heart and tumor were excised from a euthanized mouse, homogenized in PBS at 5 times tissue weight and diluted in 5 μL DMSO/50 μL sample. Prior to analysis, 55 μL samples and calibration standards were precipitated in 200 μL methanol in 96-well plates. Samples were mixed on a vortex mixer for 1.5 minutes at 1500 rpm at room temperature, then centrifuged at 4400 rpm for 10 minutes at 8° C. 150 μL of each supernatant was transferred to a well of a new 96-well plate, and 25 μL of water was added and mixed with the sample. […] For the analysis of samples from female SCID mice, a gradient of solvent A (water/0.1% formic acid) and B (acetonitrile/0.1% formic acid) was used as in Table A below.

in vivo = settings: mouse
Description: as §1, §2, §3, §4, §5

[4] = BT-474, SDC-TRAPs of the 41st table

Compound: CC(C)c1cc(-c2nnc(O)n2-c2ccc3c(ccn3CCOCCNC(=O)c3ccc(CCc4c[nH]c5nc(N)[nH]c(=O)c45)cc3)c2)c(O)cc1O [SDC-TRAP-0020, 4-(2-(2-amino-4-oxo-4,7-dihydro-3H-pyrrolo[2,3-d]pyrimidin-5-yl)ethyl)-N-(2-(2-(5-(3-(2,4-dihydroxy-5-isopropylphenyl)-5-hydroxy-4H-1,2,4-triazol-4-yl)-1H-indol-1-yl)ethoxy)ethyl)benzamide]
- pIC50 (HER2 [1]): < 5.30
- pIC50 (HER2 [2]; [4]): < 5.30

Compound: CC(C)c1cc(-c2nnc(O)n2-c2ccc3c(ccn3CCC(=O)Nc3cccc4c3CN(C3CCC(=O)NC3=O)C4=O)c2)c(O)cc1O (centres unmarked) [SDC-TRAP-0017, 3-(5-(3-(2,4-dihydroxy-5-isopropylphenyl)-5-hydroxy-4H-1,2,4-triazol-4-yl)-1H-indol-1-yl)-N-(2-(2,6-dioxopiperidin-3-yl)-1-oxoisoindolin-4-yl)propanamide]
- pIC50 (HER2 [1]): < 5.30
- pIC50 (HER2 [2]; BT-474 cells): < 5.00

Compound: CCNC(=O)c1nnc(-c2cc(C(C)C)c(O)cc2O)n1-c1ccc(CN2CCC(C(=O)N3CCN(c4cc(C)c(OC(=O)Nc5cccc6c5CN(C5CCC(=O)NC5=O)C6=O)c(C)c4)CC3)CC2)cc1 (centres unmarked) [SDC-TRAP-0195, 4-(4-(1-(4-(3-(2,4-dihydroxy-5-isopropylphenyl)-5-(ethylcarbamoyl)-4H-1,2,4-triazol-4-yl)benzyl)piperidine-4-carbonyl)piperazin-1-yl)-2,6-dimethylphenyl (2-(2,6-dioxopiperidin-3-yl)-1-oxoisoindolin-4-yl)carbamate]
- Kp at 1 h [3]: 0.109
- Kp at 6 h [3]: 2.36
- Kp at 24 h [3]: 5.5
- Kp at […] [3]: 0.014
- concentration at 1 h [3]: 211 µM
- concentration at 6 h [3]: 7.23 µM
- concentration at 24 h [3]: 2.03 µM

Compound: CC(C)c1cc(-c2nnc(O)n2-c2ccc3c(ccn3CCN(C)C(=O)c3ccc(CCc4c[nH]c5nc(N)[nH]c(=O)c45)cc3)c2)c(O)cc1O [SDC-TRAP-0019, 4-(2-(2-amino-4-oxo-4,7-dihydro-3H-pyrrolo[2,3-d]pyrimidin-5-yl)ethyl)-N-(2-(5-(3-(2,4-dihydroxy-5-isopropylphenyl)-5-hydroxy-4H-1,2,4-triazol-4-yl)-1H-indol-1-yl)ethyl)-N-methylbenzamide]
- pIC50 (HER2 [1]): 5.35
- pIC50 (HER2 [2]; [4]): 5.35

Compound: CCc1c2c(nc3ccc(OC(=O)N4CCN(Cc5ccc(-n6c(O)nnc6-c6cc(C(C)C)c(O)cc6O)cc5)CC4)cc13)-c1cc3c(c(=O)n1C2)COC(=O)C3(O)CC (centres unmarked) [SDC-TRAP-0046, 4,11-diethyl-4-hydroxy-3,14-dioxo-3,4,12,14-tetrahydro-1H-pyrano[3′,4′:6,7]indolizino[1,2-b]quinolin-9-yl 4-(4-(3-(2,4-dihydroxy-5-isopropylphenyl)-5-hydroxy-4H-1,2,4-triazol-4-yl)benzyl)piperazine-1-carboxylate]
- Kp at 6 h [3]: 0.844
- Kp at 12 h [3]: 2.2
- Kp at 24 h [3]: 40.3
- Kp at […] [3]: 0.0193
- concentration at 6 h [3]: 5.88 µM
- concentration at 12 h [3]: 2.37 µM
- concentration at 24 h [3]: 0.0542 µM

Compound: C=CCNC1=C2C[C@@H](C)C[C@H](OC)[C@H](O)[C@@H](C)/C=C(\C)[C@H](OC(N)=O)[C@@H](OC)/C=C\C=C(/C)C(=O)NC(=CC1=O)C2=O [17-AAG, reference compound]
- degradation of HER2 (HER2 [1]; overnight, 17-AAG at 0.5 μM): partial degradation of HER2

Compound: CC(C)c1cc(-c2nnc(O)n2-c2ccc(CC3CCN(CC(=O)Nc4cccc5c4CN(C4CCC(=O)NC4=O)C5=O)CC3)cc2)c(O)cc1O (centres unmarked) [SDC-TRAP-0116, 2-(4-(4-(3-(2,4-dihydroxy-5-isopropylphenyl)-5-hydroxy-4H-1,2,4-triazol-4-yl)benzyl)piperidin-1-yl)-N-(2-(2,6-dioxopiperidin-3-yl)-1-oxoisoindolin-4-yl)acetamide]
- pIC50 (HER2 [2]; BT-474 cells): 6.01
- concentration at 1 h (in vivo; Plasma Conc.): 65.2 µM
- concentration at 6 h (in vivo; Plasma Conc.): 0.595 µM
- concentration at 24 h (in vivo; Plasma Conc.): 0.0111 µM
- concentration at 48 h (in vivo; Plasma Conc.): 0.0315 µM
- Kp at 1 h (in vivo; Tumor/Plasma Ratio): 0.21
- Kp at 6 h (in vivo; Tumor/Plasma Ratio): 10.2
- Kp at 24 h (in vivo; Tumor/Plasma Ratio): 251
- Kp at 48 h (in vivo; Tumor/Plasma Ratio): 46.5
- Kp at […] (in vivo; Tumor/Plasma Ratio): 0.03

Compound: CC(C)c1cc(-c2nnc(O)n2-c2ccc(CN3CCN(C(=O)Oc4ccc(COC(=O)Nc5cccc6c5CN(C5CCC(=O)NC5=O)C6=O)cc4)CC3)c(F)c2)c(O)cc1O (centres unmarked) [SDC-TRAP-0171, 4-((((2-(2,6-dioxopiperidin-3-yl)-1-oxoisoindolin-4-yl)carbamoyl)oxy)methyl)phenyl-4-(4-(3-(2,4-dihydroxy-5-isopropylphenyl)-5-hydroxy-4H-1,2,4-triazol-4-yl)-2-fluorobenzyl)piperazine-1-carboxylate]
- Kp at 1 h [3]: 0.249
- Kp at 6 h [3]: 3.1
- Kp at 24 h [3]: 407
- Kp at […] [3]: 0.0164
- concentration at 1 h [3]: 32.2 µM
- concentration at 6 h [3]: 1.21 µM
- concentration at 24 h [3]: 0.00162 µM

Compound: CCc1c2c(nc3ccc(O)cc13)-c1cc3c(c(=O)n1C2)COC(=O)C3(CC)OC(=O)CN1CCN(c2ccc(-n3c(O)nnc3-c3cc(C(C)C)c(O)cc3O)cc2)CC1 (centres unmarked) [SDC-TRAP-0056, 4,11-diethyl-9-hydroxy-3,14-dioxo-3,4,12,14-tetrahydro-1H-pyrano[3′,4′:6,7]indolizino[1,2-b]quinolin-4-yl 2-(4-(4-(3-(2,4-dihydroxy-5-isopropylphenyl)-5-hydroxy-4H-1,2,4-triazol-4-yl)phenyl)piperazin-1-yl)acetate]
- Kp (in vivo; Tumor/Plasma Ratio, Tissue Distribution Data for SDC-TRAP-0056, time 6 h): 1.28
- Kp (in vivo; Tumor/Plasma Ratio, Tissue Distribution Data for SDC-TRAP-0056, time 12 h): 1.95
- Kp (in vivo; Tumor/Plasma Ratio, Tissue Distribution Data for SDC-TRAP-0056, time […]): 0.00525

Compound: COc1ccc(-c2cnoc2-c2cc(OC)c(OC)c(OC)c2)cc1OC(=O)N1CCN(Cc2ccc(-n3c(O)nnc3-c3cc(C(C)C)c(O)cc3O)cc2)CC1 [SDC-TRAP-0098, 2-Methoxy-5-(5-(3,4,5-trimethoxyphenyl)isoxazol-4-yl)phenyl-4-(4-(3-(2,4-dihydroxy-5-isopropylphenyl)-5-hydroxy-4H-1,2,4-triazol-4-yl)benzyl)piperazine-1-carboxylate]
- Kp at 1 h [3]: 0.62
- Kp at 6 h [3]: 8.22
- Kp at 24 h [3]: 300
- Kp at […] [3]: 0.01

Compound: CCc1c2c(nc3ccc(OC(=O)N4CCN(c5ccc(-n6c(O)nnc6-c6cc(C(C)C)c(O)cc6O)cc5)CC4)cc13)-c1cc3c(c(=O)n1C2)COC(=O)C3(O)CC (centres unmarked) [SDC-TRAP-0045, 4,11-diethyl-4-hydroxy-3,14-dioxo-3,4,12,14-tetrahydro-1H-pyrano[3′,4′:6,7]indolizino[1,2-b]quinolin-9-yl 4-(4-(3-(2,4-dihydroxy-5-isopropylphenyl)-5-hydroxy-4H-1,2,4-triazol-4-yl)phenyl)piperazine-1-carboxylate]
- Kp at 6 h [3]: 1.35
- Kp at 12 h [3]: 8.02
- Kp at […] [3]: 0.00624
- concentration at 6 h [3]: 1.88 µM
- concentration at 12 h [3]: 0.141 µM
- concentration at 24 h [3]: 0.0113 µM

Compound: CCNC(=O)c1nnc(-c2cc(C(C)C)c(O)cc2O)n1-c1ccc(Oc2ccc(C(=O)N3CCC(C(=O)OC4(CC)C(=O)OCc5c4cc4n(c5=O)Cc5c-4nc4ccc(O)cc4c5CC)CC3)cc2)cc1 (centres unmarked) [SDC-TRAP-0154, 4,11-Diethyl-9-hydroxy-3,14-dioxo-3,4,12,14-tetrahydro-1H-pyrano[3′,4′:6,7]indolizino[1,2-b]quinolin-4-yl 1-(4-(4-(3-(2,4-dihydroxy-5-isopropylphenyl)-5-(ethylcarbamoyl)-4H-1,2,4-triazol-4-yl)phenoxy)benzoyl)piperidine-4-carboxylate]
- Kp (in vivo; Tumor/Plasma Ratio, Tissue Distribution Data for SDC-TRAP-0154, time 1 h): 0.06
- Kp (in vivo; Tumor/Plasma Ratio, Tissue Distribution Data for SDC-TRAP-0154, time 6 h): 1.86
- Kp (in vivo; Tumor/Plasma Ratio, Tissue Distribution Data for SDC-TRAP-0154, time 24 h): 11.9
- Kp (in vivo; Tumor/Plasma Ratio, Tissue Distribution Data for SDC-TRAP-0154, time 48 h): 86
- Kp (in vivo; Tumor/Plasma Ratio, Tissue Distribution Data for SDC-TRAP-0154, time […]): 0.01
